Where a SMILES comes first, the peptide text is derived from it. Bridges are numbered along the chain shown (N, C = ends). [ ]: non-standard residue; d: D form. NMeTyr(3-tBu) = CN[C@@H](Cc1ccc(O)c(C(C)(C)C)c1)C(=O)O; Tyr(3-tBu) = CC(C)(C)c1cc(C[CH](N)C(=O)O)ccc1O; Phe(4-F) = N[C@@H](Cc1ccc(F)cc1)C(=O)O; NMeLys(Me) = CNCCCC[C@H](NC)C(=O)O; NMeK = CN[C@@H](CCCCN)C(=O)O; GABA = NCCCC(=O)O; βAla = NCCC(=O)O
How the values were obtained:
motilin receptors = target: T1, motilin receptors (Oryctolagus cuniculus, UniProt G1T803); assay: Motilin receptor binding test (125I motilin, rabbit duodenum protein solution); settings: concentration inhibiting 50% of specific binding of 25 pM 125I motilin; rabbit duodenum homogenate, 2 hours at 25° C.
T1 construct: A protein solution was prepared by homogenizing the duodenum isolated from a killed rabbit; from tissue; host or cells: rabbit duodenum, mucosa stripped, homogenate
T1 sequence (G1T803 1-400): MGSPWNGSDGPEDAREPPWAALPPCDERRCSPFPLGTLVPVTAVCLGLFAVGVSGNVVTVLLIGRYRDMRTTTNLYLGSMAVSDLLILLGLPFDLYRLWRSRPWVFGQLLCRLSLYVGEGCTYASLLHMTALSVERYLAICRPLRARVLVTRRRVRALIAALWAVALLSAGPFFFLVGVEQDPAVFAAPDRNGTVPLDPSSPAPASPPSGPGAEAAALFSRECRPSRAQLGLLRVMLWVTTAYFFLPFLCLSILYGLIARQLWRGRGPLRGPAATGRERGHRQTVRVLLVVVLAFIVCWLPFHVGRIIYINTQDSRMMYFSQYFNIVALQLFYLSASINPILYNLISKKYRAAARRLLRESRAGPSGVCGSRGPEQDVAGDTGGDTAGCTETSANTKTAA
Experimental: Motilin receptor binding activities of compounds of the present invention were tested as follows [Vantrappen et al., Regul.
A protein solution was prepared by homogenizing the duodenum isolated from a killed rabbit in 50 mM Tris after stripping the mucosa. […] The difference between the radioactivity of the protein solution incubated alone and the radioactivity of the protein solution incubated with a large excess of motilin (10^−7 M) was recorded as specific binding of motilin to motilin receptors.

[1] = test system: motilin-induced contraction of a sample of the longitudinal muscle of the duodenum; assay: Contraction inhibition test: motilin-induced contraction of rabbit longitudinal duodenal muscle; type: cell-based; settings: Oryctolagus cuniculus; concentration-dependent contraction induced by motilin; rabbit duodenal specimen in Krebs solution at 28° C.; read-out: Contraction inhibition test pA2 (converted)
Experimental: The effect of compounds of the present invention on motilin-induced contraction of a sample of the longitudinal muscle of the duodenum extracted from a rabbit was tested as follows.
A duodenal specimen (5×15 mm) extracted from a killed rabbit was suspended in the direction of the longitudinal muscle in an incubator at 28° C. filled with Krebs solution (10 ml organ bath). A mixed gas (95% O2, 5% CO2) was continuously passed through the Krebs solution and the contraction of the duodenal specimen was isotonically recorded (under a load of 1 g) via an isotonic transducer (ME-3407, ME Commercial, Tokyo, Japan). The extent of contraction of the duodenal specimen was expressed as a percentage to the contraction induced by acetylcholine at a concentration of 10^−4 M.
The effect of the compounds synthesized in Examples 1–8 and 10 on the concentration-dependent contraction induced by motilin added into the incubator was determined to calculate pA2 (see “Drug receptors” edited by Takayanagi, published by Nanzando). As a comparative example, the results of the compound of formula (5) are also shown.

| IC50 (motilin receptors) | SMILES | Kb [1] |
| --- | --- | --- |
| 4.5 nM | CC(C)(C)c1cc(C[C@@H]2NC(=O)[C@@H](NC(=O)[C@@H](N)Cc3ccc(F)cc3)CCCCNC(=O)CCNC2=O)ccc1O [Example 7, (2S,14S)-13-(2S-2-amino-3-(4-fluorophenyl)propylamino)-2-(3-tert-butyl-4-hydroxyphenylmethyl)-1,4,8-triaza-3,7,14-trioxocyclotetradecane] (H-[Phe(4-F)]K[Tyr(3-tBu)][βAla]; lactam 2-C) | 10 nM |
| 1.4 nM | CN(C(=O)[C@@H](N)Cc1ccc(F)cc1)[C@H]1CCCCNC(=O)CCNC(=O)[C@H](Cc2ccc(O)c(C(C)(C)C)c2)N(C)C1=O [Example 2, (2S-(2S.13S))-2-amino-N-(2-(3-tert-butyl-4-hydroxyphenylmethyl)-1-methyl-1,4,8-triaza-3,7,14-trioxocyclotetradec-13-yl)-3-(4-fluorophenyl)-N-methylpropionamide] (H-[Phe(4-F)][NMeK][NMeTyr(3-tBu)][βAla]; lactam 2-C) | 1.26 nM |
| 0.78 nM | CN1CCC(=O)NCCCC[C@H](N(C)C(=O)[C@@H](N)Cc2ccc(F)cc2)C(=O)N[C@@H](Cc2ccc(O)c(C(C)(C)C)c2)C1=O [Example 4, (2S-(2S,13S))-2-amino-N-(2-(3-tert-butyl-4-hydroxyphenylmethyl)-4-methyl-1,4,8-triaza-3,7,14-trioxocyclotetradec-13-yl)-3-(4-fluorophenyl)-N-methylpropionamide] | 1 nM |
| 1.4 nM | CN1CCCC[C@H](N(C)C(=O)[C@@H](N)Cc2ccc(F)cc2)C(=O)N[C@@H](Cc2ccc(O)c(C(C)(C)C)c2)C(=O)NCCC1=O [Example 5, (2S-(2S,13S))-2-amino-N-(2-(3-tert-butyl-4-hydroxyphenylmethyl)-8-methyl-1,4,8-triaza-3,7,14-trioxocyclotetradec-13-yl)-3-(4-fluorophenyl)-N-methylpropionamide] (H-[Phe(4-F)][NMeLys(Me)][Tyr(3-tBu)][βAla]; lactam 2-C) | 0.126 nM |
| 10 nM | CC(C)(C)c1cc(CC2NC(=O)C(NC(=O)C(N)Cc3ccccc3)CCCCNC(=O)CCNC2=O)ccc1O (stereo not drawn) [Comparative example, reference compound] (H-FK[Tyr(3-tBu)][βAla]; lactam 2-C; configuration not given here) | 63.1 nM |
| 0.52 nM | CN(C(=O)[C@@H](N)Cc1ccc(F)cc1)[C@H]1CCCCNC(=O)CNC(=O)[C@H](Cc2ccc(O)c(C(C)(C)C)c2)NC1=O [Example 3, (2S-(2S,12S))-2-amino-N-(2-(3-tert-butyl-4-hydroxyphenylmethyl)-1,4,8-triaza-3,7,13-trioxocyclotridec-12-yl)-3-(4-fluorophenyl)-N-methylpropionamide] (H-[Phe(4-F)][NMeK][Tyr(3-tBu)]G; lactam 2-C) | 6.31 nM |
| 2.2 nM | CN(C(=O)[C@@H](N)Cc1ccccc1)[C@H]1CCCCNC(=O)CCNC(=O)[C@H](Cc2ccc(O)c(C(C)(C)C)c2)NC1=O [Example 10, (2S-(2S,13S))-2-amino-N-(2-(3-tert-butyl-4-hydroxyphenylmethyl)-1,4,8-triaza-3,7,14-trioxocyclotetradec-13-yl)-3-phenyl-N-methylpropionamide] (H-F[NMeK][Tyr(3-tBu)][βAla]; lactam 2-C) | 12.6 nM |

| SMILES | IC50 (motilin receptors) | Kb [1] |
| --- | --- | --- |
| CN(C(=O)[C@@H](N)Cc1ccc(F)cc1)[C@H]1CCCCNC(=O)CCCNC(=O)[C@H](Cc2ccc(O)c(C(C)(C)C)c2)NC1=O [Example 6, (2S-(2S,14S))-2-amino-N-(2-(3-tert-butyl-4-hydroxyphenylmethyl)-1,4,9-triaza-3,8,15-trioxocyclopentadec-14-yl)-3-(4-fluorophenyl)-N-methylpropionamide] (H-[Phe(4-F)][NMeK][Tyr(3-tBu)][GABA]; lactam 2-C) | 0.87 nM | 3.16 nM |
| CC(=O)N1CCCC[C@H](N(C)C(=O)[C@@H](N)Cc2ccc(F)cc2)C(=O)N[C@@H](Cc2ccc(O)c(C(C)(C)C)c2)C(=O)NCCC1 [Example 8, (2S-(2S.13S))-N-(8-acetyl-2-(3-tert-butyl-4-hydroxyphenylmethyl)-N-methyl-1,4,8-triaza-3,14-dioxocyclotetradec-13-yl)-2-amino-3-(4-fluorophenyl)propionamide] | 0.84 nM | 6.31 nM |
